Test results from patent publication US6846913B1, “Crude extract from Viscum album coloratum, and proteins and lectins isolated therefrom” (Mistle Biotech Co., Ltd., priority 1999, dated 2005).

System: hemagglutination of KML-IIU and KML-IIL
Design: species or system Korean mistletoe
Settings: sugars stepwise diluted from 100 mM

Structure (SMILES)	Minimal Conc. (mM) necessary to inhibit the hemagglutination
O=C[C@H](O)[C@@H](O)[C@@H](O)[C@H](O)CO [Galactose]	6 mM
OC[C@H]1O[C@@H](O[C@H]2[C@H](O)[C@@H](O)C(O)O[C@@H]2CO)[C@H](O)[C@@H](O)[C@H]1O (stereo partly shown) [Lactose]	3 mM
CC(=O)N[C@H]1C(O)O[C@H](CO)[C@H](O)[C@@H]1O (stereo partly shown) [N-Acetylgalactosamine]	3 mM
CC(=O)N[C@H]1C(O)O[C@H](CO)[C@@H](O)[C@@H]1O (stereo partly shown) [N-Acetylglucosamine]	>100 mM
